Columns and labels:
[1] = tested on: neutrophilic granulocytes, lymphocytes and macrophages; test: Preliminary rapid test: immunostimulant effect; assay type: in vivo, CFLP male mice; details: oral, one-tenth of LD50; 24 hours
[2] = tested on: neutrophylic granulocytes and limphocytes; details: mouse, in vivo, po
NK-ly-ascites lymphoma = NK-ly-ascites lymphoma in vivo; design: species or system CFLP male mice; details: for Activity against NK-ly-ascites tumor: concentration below one-tenth of the LD50 value; for Survival rate and lifetime: dose-dependant
NK-yl ascites tumor = test: Combinations with known cytostatic agents in NK-ly ascites tumor; assay type: in vivo, CFLP mice; details: with cyclophosphamide, carnomustine, degranol, dibromo dulcitol or dibromo mannitol

Compound	LD50 at 24 h (in vivo; po) [mg/kg]	Immunostimulant effect [1]	Toxic effect [2]	LD50 at 24 h (in vivo; ip) [mg/kg]	Activity against NK-ly-ascites tumor (NK-ly-ascites lymphoma)	Survival rate and lifetime (NK-ly-ascites lymphoma)	Antitumor effect of combination vs cytostatic agent alone (NK-yl ascites tumor)	Immunodepression of combination vs cytostatic agent alone (NK-yl ascites tumor)
CSC(=N)NC(=N)N [Example 9, N-Aminoiminomethyl-S-Methyl-Isothiuronium Iodide]	2320 ± 220	medium (Medium effect is observed if the increase of cell number or activity over the control amounts to 20%)	–	–	–	–	–	–
CCCSC(=N)NC(=N)N [Example 10, N-Aminoiminomethyl-S-n-Propyl-Isothuronium Bromide]	2800 ± 260	medium (Medium effect is observed if the increase of cell number or activity over the control amounts to 20%)	0	–	–	–	–	–
C=CCSC(=NC)NC(=N)N [Example 20, N-Aminoiminomethyl-N'-Methyl-S-Allyl-Isothiuronium Chloride]	600 ± 54	weak	0	75 ± 6.3	active agains Nk-ly-ascites tumor in a concentration below one-tenth of the LD50 value	increase survival rate and lifetime in a dose-dependant manner	–	–
C=CCSC(=NC(C)C)NC(=N)N [Example 21, N-aminoiminomethyl-N'-Isopropyl-S-Allyl-Isothiuronium Chloride]	280 ± 26	weak	0	32 ± 4	–	–	–	–
CCSC(=N)NC(=N)N [Example 23, N-aminoiminomethyl-S-ethyl-isothiuronium bromide]	3080 ± 290	strong (The effect is strong if the increase of the cell number and activity of the immune system is more than 20% higher than the control)	0	–	–	–	–	–
CC(C)SC(=N)NC(=N)N [Example 24, N-aminoiminomethyl-S-isopropyl-isothiuronium bromide]	2260 ± 210	medium (Medium effect is observed if the increase of cell number or activity over the control amounts to 20%)	0	–	–	–	–	–
CCCCSC(=N)NC(=N)N [Example 25, N-aminoiminomethyl-S-n-butyl-isothiuronium bromide]	2700 ± 310	medium (Medium effect is observed if the increase of cell number or activity over the control amounts to 20%)	0	–	–	–	–	–
CC(C)CCSC(=N)NC(=N)N [Example 26, N-aminoiminomethyl-S-isoamyl-isothiuronium bromide]	2260 ± 241	medium (Medium effect is observed if the increase of cell number or activity over the control amounts to 20%)	0	–	–	–	–	–
N=C(N)NC(=N)SCCCO [Example 29, N-aminoiminomethyl-S-(3-hydroxy-propyl)-isothiuronium bromide]	2860 ± 180	medium (Medium effect is observed if the increase of cell number or activity over the control amounts to 20%)	0	–	–	–	–	–
C#CCSC(=N)NC(=N)N [Example 31, N-aminoiminomethyl-S-propargyl-isothuronium bromide]	90	–	–	–	–	–	–	–
C=C(C)CSC(=N)NC(=N)N [Example 44, N-(Aminoiminomethyl)-S-Metallyl-Isothiuronium-Bromide]	1640 ± 210	medium (Medium effect is observed if the increase of cell number or activity over the control amounts to 20%)	0	–	–	–	–	–
C=CCN=C(NC(=N)N)SCC=C [Example 45, N-(Aminoiminomethyl)-N'-Allyl-S-Allyl-Isothiuronium Bromide]	380 ± 41	weak	0	36 ± 4	active agains Nk-ly-ascites tumor in a concentration below one-tenth of the LD50 value	increase survival rate and lifetime in a dose-dependant manner	the antitumor effect was strengthened	immunodepression decreased

— patent US4710578A, “Isothiuronium salts” (Peremartoni Vegyipari Vallalat, priority 1984, dated 1987)
